Laboratory results from patent publication US6451835B1, “Pesticidal fluoroethyl pyrazole derivatives” (Uniroyal Chemical Company, Inc., priority 2001, dated 2002).

Legend:
Type in all cases: in vivo
[1] = system: root knot nematode (Meloidogmne incognita); assay: Nematode test (NE); conditions: soil drench, soil concentration of 50 ppm; tomato seedling roots evaluated for galls nineteen days after planting
Procedure: Stock solutions of each of the compounds were prepared at 1000 ppm by dissolving 0.08 gram of each compound to be tested in 8 mL of acetone and adding 72 mL of distilled water plus 3 drops of ethoxylated sorbitan monolaurate, a wetting agent. […] For each example that follows, these stock solutions were used and the specified dilutions made. All the tests discussed below, which involved treatment with compounds of this invention, were always repeated with controls to permit a comparison upon which the percent control was calculated. One thousand ppm of each stock solution of Example 2 was used for this test. For each test solution, 25 mL was drenched onto separate 500 gram samples of soil infested with root knot nematode (Meloidogmne incognita) eggs in a pot, for a soil concentration of 50 ppm. One day after treatment, two tomato seedlings were planted in each pot. Nineteen days after planting, the roots were evaluated for the presence of knots or galls, and the percent control was estimated on the infestation levels in check plants.

[2] = system: Tefranychus urticae Koch eggs; assay: Mite ovicide test (MIOV); conditions: 1000 ppm spray to run off on cowpea leaves; unhatched eggs read nine days following treatment
Procedure: (§1) Stock solutions of each of the compounds were prepared at 1000 ppm by dissolving 0.08 gram of each compound to be tested in 8 mL of acetone and adding 72 mL of distilled water plus 3 drops of ethoxylated sorbitan monolaurate, a wetting agent. […] For each example that follows, these stock solutions were used and the specified dilutions made. All the tests discussed below, which involved treatment with compounds of this invention, were always repeated with controls to permit a comparison upon which the percent control was calculated. One day before treatment of cowpea primary leaves with the test solutions, a “FIG. 8” configuration of tree tanglefoot was applied to each of two cowpea primary leaves, one from each of two plants in a pot. In each “Figure”, the circle nearer the stem was designated for the mite ovicide test and the circle farther from the stem was designated for the mite adulticide test. Groups of adult mites (Tefranychus urticae Koch) were transferred into ovicide circles one day before treatment and the females were allowed to deposit eggs until one hour before treatment, at which point all the adults were removed. The plants were then sprayed to run off with each 1000 ppm stock solution of Example 2. One day following treatment of the plants with the test solution, groups of approximately 25 adult mites were transferred into the adulticide rings. Five days later, these rings were examined for live mites remaining on the leaves. The percent control was estimated based on the number of mites surviving on the control plants. Nine days following treatment the ovicide rings were examined for unhatched eggs and living immature mites. The percent control was estimated based on the number of unhatched eggs.

[3] = system: rice delphacids, Sogatodes orizicola; assay: Rice planthopper foliar test (RPH); conditions: 1000 ppm spray on rice seedlings; adults added 1 day after treatment, counted five days after transferring
Procedure: (§2) Stock solutions of each of the compounds were prepared at 1000 ppm by dissolving 0.08 gram of each compound to be tested in 8 mL of acetone and adding 72 mL of distilled water plus 3 drops of ethoxylated sorbitan monolaurate, a wetting agent. […] For each example that follows, these stock solutions were used and the specified dilutions made. All the tests discussed below, which involved treatment with compounds of this invention, were always repeated with controls to permit a comparison upon which the percent control was calculated.
One thousand ppm of each stock solution of Example 2 was used for this test. One pot containing approximately 20 rice seedlings was treated with each formulation by spraying with a spray atomizer. One day after treatment, plants were covered with a tubular cage and 20 adult rice delphacids, Sogatodes orizicola, were transferred into each cage. Five days after transferring, counts were made of the surviving planthoppers in each pot and percent control was estimated.

[4] = system: Southern Corn Rootworm (Diabrotica undecimpuncatat); assay: Southern corn rootworm test (CR); conditions: 100 ppm test solution, corn seedlings on filter paper; second instar larvae; after five days; corrected by Abbott's formula
Procedure: Stock solutions of each of the compounds were prepared at 1000 ppm by dissolving 0.08 gram of each compound to be tested in 8 mL of acetone and adding 72 mL of distilled water plus 3 drops of ethoxylated sorbitan monolaurate, a wetting agent. […] For each example that follows, these stock solutions were used and the specified dilutions made. All the tests discussed below, which involved treatment with compounds of this invention, were always repeated with controls to permit a comparison upon which the percent control was calculated. One thousand ppm of each stock solution of Example 2 was diluted to 100 ppm (the “test solution”). For each compound, 2.5 mL of each test solution was pipetted onto a filter paper (Whatman #3) at the bottom of a 100 mm petri dish. Two corn seedlings were soaked in the 100 ppm solution for one hour and transferred to the petri dish containing the same test solution. After 24 hours, each dish was loaded with 5 second instar larvae of Southern Corn Rootworm (Diabrotica undecimpuncatat). After five days, the number of live larvae was noted and the percent control, corrected by Abbott's formula, was calculated.

[5] = system: Helicoverpa virescens larva; assay: Tobacco budworm test (TB); conditions: 0.2 mL of 1000 ppm stock solution on diet cell surface; second instar larva; after 14 days; corrected by Abbott's formula
Procedure: as §2
For each compound tested, 0.2 mL of each stock solution of Example 2 was pipetted onto the surfaces of each of five diet cells, allowed to spread over the surfaces, and air dried for two hours. Then, a second instar Helicoverpa virescens larva was introduced into each cell. After 14 days, the number of living larvae was determined for each treatment and percent control, corrected by Abbott's formula (J. Econ. Entomology (1925, 265-267), was calculated. The results of the testing of tobacco budworms (TB) are presented in Table 2.

[6] = system: Tefranychus urticae Koch; assay: Mite adulticide test (MI); conditions: 1000 ppm spray to run off on cowpea leaves; adult mites added 1 day after treatment, read five days later
Procedure: as §1

| SMILES | Percent Control NE [1] | Percent Control MIOV [2] | Percent Control RPH [3] | Percent Control CR [4] | Percent Control TB [5] | Percent Control MI [6] |
| --- | --- | --- | --- | --- | --- | --- |
| FCCC1(c2ccccc2)C=NNC1 (stereo not drawn) [Compound 1, 4-(2-fluoroethyl)-4-phenyl-1H-pyrazole] | 50% | 100% | 20% | 0% | 20% | 0% |
| FCCn1cc(-c2ccc(Cl)c(Cl)c2)cn1 [Compound 5] | 60% | 100% | 0% | 63% | 0% | 100% |
| FCCn1cc(-c2ccc(C(F)(F)F)cc2)cn1 [Compound 3] | 0% | 0% | 0% | 100% | 100% | 0% |
| FCCn1cc(-c2ccc(Cl)cc2)cn1 [Compound 2] | 100% | 100% | 0% | 100% | 40% | 100% |
| FCCn1cc(-c2cccc(Br)c2)cn1 [Compound 4] | 100% | 100% | 0% | 0% | 7% | 100% |
| FCCn1cc(-c2ccc(OC(F)(F)F)cc2)cn1 [Compound 7] | 100% | 100% | 85% | 100% | 0% | 0% |
| FCCn1cc(-c2cccc(C(F)(F)F)c2)cn1 [Compound 6] | 100% | 100% | 85% | 100% | 0% | 0% |
